The results in this text go back to the Kinase Knowledgebase extract (Sharma et al. 2016).

Experiment [1] has as its target EGFR (human), P00533 [WT]. The following applies: hl-7702.
A further experiment has as its target EGFR (human) (UniProt P00533). The following applies: a431.
Experiment [2] addresses EGFR (human), P00533 [Inhibition of Proliferation of EGFR(WT, k-Ras mutation) in A549 Cells].
In experiment [3] the target is EGFR (Human), P00533 [T790M/L858R]. The following applies: h1975.

Each structure is given as a SMILES string.

Chain of EGFR (human), P00533 [WT] (P00533 whole entry, looked up): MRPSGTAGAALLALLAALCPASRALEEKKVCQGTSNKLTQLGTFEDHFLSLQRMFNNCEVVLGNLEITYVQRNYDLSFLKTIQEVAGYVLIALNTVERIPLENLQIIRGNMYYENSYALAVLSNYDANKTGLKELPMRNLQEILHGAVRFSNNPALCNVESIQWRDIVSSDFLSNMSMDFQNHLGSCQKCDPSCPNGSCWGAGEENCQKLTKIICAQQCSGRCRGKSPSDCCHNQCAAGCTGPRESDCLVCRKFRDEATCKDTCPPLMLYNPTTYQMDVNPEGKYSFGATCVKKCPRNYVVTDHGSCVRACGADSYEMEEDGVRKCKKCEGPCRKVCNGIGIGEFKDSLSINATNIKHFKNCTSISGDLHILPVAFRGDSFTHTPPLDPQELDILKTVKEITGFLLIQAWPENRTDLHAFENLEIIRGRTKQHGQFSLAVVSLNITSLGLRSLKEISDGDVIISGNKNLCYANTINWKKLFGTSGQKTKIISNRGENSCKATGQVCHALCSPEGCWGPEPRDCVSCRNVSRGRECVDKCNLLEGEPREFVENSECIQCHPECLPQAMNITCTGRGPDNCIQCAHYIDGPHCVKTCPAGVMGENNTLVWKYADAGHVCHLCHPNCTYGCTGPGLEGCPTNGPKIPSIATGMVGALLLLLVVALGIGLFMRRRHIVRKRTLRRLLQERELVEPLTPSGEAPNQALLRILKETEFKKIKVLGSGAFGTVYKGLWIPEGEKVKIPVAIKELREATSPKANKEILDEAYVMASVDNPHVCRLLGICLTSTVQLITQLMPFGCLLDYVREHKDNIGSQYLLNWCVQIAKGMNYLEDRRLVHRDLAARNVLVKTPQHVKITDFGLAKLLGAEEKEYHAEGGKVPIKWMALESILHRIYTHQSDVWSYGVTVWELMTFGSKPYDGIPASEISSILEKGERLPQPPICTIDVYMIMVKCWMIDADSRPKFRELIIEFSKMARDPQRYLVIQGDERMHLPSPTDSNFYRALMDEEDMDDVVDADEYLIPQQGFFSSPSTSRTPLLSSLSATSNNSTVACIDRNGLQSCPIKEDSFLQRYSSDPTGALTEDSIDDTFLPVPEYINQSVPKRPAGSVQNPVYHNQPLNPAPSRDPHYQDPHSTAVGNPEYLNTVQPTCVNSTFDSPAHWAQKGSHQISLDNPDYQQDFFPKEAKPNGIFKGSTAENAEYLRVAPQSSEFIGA
Chain of EGFR (human) (P00533 whole entry, looked up): as above
Chain of EGFR (human), P00533 [Inhibition of Proliferation of EGFR(WT, k-Ras mutation) in A549 Cells] (P00533 whole entry, looked up, stated change not applied): as the sequence (P00533 whole entry, looked up) above
Chain of EGFR (Human), P00533 [T790M/L858R] (P00533 whole entry T790M/L858R, looked up): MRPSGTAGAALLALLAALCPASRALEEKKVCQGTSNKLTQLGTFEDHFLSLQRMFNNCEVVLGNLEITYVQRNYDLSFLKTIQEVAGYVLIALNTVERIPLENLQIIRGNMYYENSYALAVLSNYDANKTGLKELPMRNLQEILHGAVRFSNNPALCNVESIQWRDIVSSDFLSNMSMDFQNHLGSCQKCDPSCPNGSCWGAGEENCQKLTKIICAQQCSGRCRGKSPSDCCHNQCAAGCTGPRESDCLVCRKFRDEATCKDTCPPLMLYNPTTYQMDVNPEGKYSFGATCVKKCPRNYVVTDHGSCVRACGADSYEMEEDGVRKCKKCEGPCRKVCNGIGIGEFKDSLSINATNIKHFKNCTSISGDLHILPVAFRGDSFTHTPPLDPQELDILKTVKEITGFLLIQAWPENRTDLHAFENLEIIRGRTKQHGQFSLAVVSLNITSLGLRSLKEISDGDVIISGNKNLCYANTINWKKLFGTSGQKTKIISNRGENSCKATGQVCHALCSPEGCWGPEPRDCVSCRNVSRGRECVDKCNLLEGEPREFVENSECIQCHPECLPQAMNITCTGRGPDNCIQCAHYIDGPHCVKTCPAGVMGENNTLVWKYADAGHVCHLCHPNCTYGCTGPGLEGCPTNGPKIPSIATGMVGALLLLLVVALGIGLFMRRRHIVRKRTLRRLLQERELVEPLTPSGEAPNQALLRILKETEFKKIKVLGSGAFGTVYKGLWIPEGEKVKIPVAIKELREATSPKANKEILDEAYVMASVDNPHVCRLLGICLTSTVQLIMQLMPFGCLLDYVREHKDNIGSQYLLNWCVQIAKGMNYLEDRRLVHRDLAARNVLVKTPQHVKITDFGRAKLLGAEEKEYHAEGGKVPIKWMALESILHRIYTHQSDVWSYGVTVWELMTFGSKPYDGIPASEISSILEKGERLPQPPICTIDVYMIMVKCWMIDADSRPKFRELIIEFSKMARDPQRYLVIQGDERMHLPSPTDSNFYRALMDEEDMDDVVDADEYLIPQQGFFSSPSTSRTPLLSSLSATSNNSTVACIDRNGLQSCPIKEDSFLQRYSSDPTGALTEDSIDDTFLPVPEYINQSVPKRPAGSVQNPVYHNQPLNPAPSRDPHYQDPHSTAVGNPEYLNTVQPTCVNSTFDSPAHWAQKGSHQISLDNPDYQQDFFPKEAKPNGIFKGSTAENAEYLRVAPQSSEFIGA

The IC50 is the concentration that inhibits the measured activity by half. With `C=CC(=O)Nc1cccc(N2C(=O)N(c3ccc(Oc4ccccc4)cc3)Cc3cnc(Nc4ccc(N5CCN(C)CC5)cc4OC)nc32)c1`, the IC50 in experiment [1] is more than 10 µM.

For `C=CC(=O)Nc1cccc(N2C(=O)N(C)Cc3cnc(NC)nc32)c1`, the IC50 is more than 10 µM against EGFR (human), more than 20 µM in experiment [2] and more than 10 µM in experiment [1].

Take `C=CC(=O)Nc1cccc(N2C(=O)N(C)Cc3cnc(Nc4ccc(N5CCN(C)CC5)cc4OC)nc32)c1`: the IC50 in experiment [1] is more than 10 µM.

`C=CC(=O)Nc1cccc(N2C(=O)N(C)Cc3cnc(Nc4ccccc4)nc32)c1` showed an IC50 in experiment [1] of more than 10 µM.

In the case of `C=CC(=O)Nc1cccc(N2C(=O)N(C)Cc3cnc(Nc4ccc(N5CCCCC5)cc4OC)nc32)c1`, the IC50 in experiment [1] is more than 10 µM.

`C=CC(=O)Nc1cccc(N2C(=O)N(C(C)C)Cc3cnc(Nc4ccc(N5CCN(C)CC5)cc4OC)nc32)c1` gave an IC50 in experiment [1] of more than 10 µM.

In the case of `C=CC(=O)Nc1cccc(N2C(=O)N(C)Cc3cnc(Nc4ccc(N5CCCN(C)CC5)cc4OC)nc32)c1`, the IC50 in experiment [2] is more than 20 µM; in experiment [1] it was more than 10 µM.

For the compound `C=CC(=O)Nc1cccc(N2C(=O)N(C)Cc3cnc(Nc4ccc(N5CCOCC5)cc4OC)nc32)c1`, the IC50 (on EGFR (human); in experiment [1]) was more than 10 µM throughout.

Take `C=CC(=O)Nc1cccc(N2C(=O)N(C)Cc3cnc(Nc4ccc(N5CCN(C)CC5)cc4OCC)nc32)c1`: the IC50 in experiment [1] was more than 10 µM.

In the case of `C=CC(=O)Nc1cccc(N2C(=O)N(C)Cc3cnc(Nc4ccc(N5CCN(C)CC5)cc4C)nc32)c1`, in experiment [1], the IC50 was more than 10 µM.

On to `C=CC(=O)Nc1cccc(N2C(=O)N(C)Cc3cnc(Nc4ccc(N5CCN(C)CC5)cc4F)nc32)c1`, for which the IC50 against EGFR (human) is more than 10 µM.

In experiment [1], `C=CC(=O)Nc1cccc(N2C(=O)N(C)Cc3cnc(Nc4ccc(N5CCC(N(C)C)CC5)cc4OC)nc32)c1` came in with an IC50 of more than 10 µM.

For `C=CC(=O)Nc1cccc(N2C(=O)N(C)Cc3cnc(Nc4ccc(N(C)C)cc4OC)nc32)c1`, the IC50 was more than 20 µM in experiment [2] and more than 10 µM in experiment [1].

In the case of `CCC(=O)Nc1cccc(N2C(=O)N(C)Cc3cnc(Nc4ccc(N5CCN(C)CC5)cc4OC)nc32)c1`, the IC50 at EGFR (human) is more than 10 µM; in experiment [2], more than 30 µM; in experiment [3], more than 20 µM; in experiment [1] it was more than 10 µM.

With `C=CC(=O)Nc1cccc(N2C(=O)N(C)Cc3cnc(Nc4ccc(N5CCN(C)CC5)cc4OC(C)C)nc32)c1`, the IC50 in experiment [1] is more than 10 µM.

As for `COc1cc(N2CCN(C)CC2)ccc1Nc1ncc2c(n1)N(c1cccc(N)c1)C(=O)N(C)C2`, the IC50 is more than 10 µM against EGFR (human), more than 20 µM in experiment [3] and more than 10 µM in experiment [1].
